Assay results reported in article PMC3806476, “Natural and Semisynthetic Analogues of Manadoperoxide B Reveal New Structural Requirements for Trypanocidal Activity” (Marine Drugs, 2013).
Converted amounts (≈) assume the structure as drawn. “And” between values parts separate entries of the source, which are not always exact repeats. Equal entries are not always repeated. Where two headings read alike, the source gives them in different places.

Legend:
[1] = test system: bloodstream forms of Trypanosoma brucei rhodesiense STIB 900 strain; design: method as in PMID 22859016; settings: cited from earlier work
[2] = test system: bloodstream forms of Trypanosoma brucei rhodesiense STIB 900 strain; experiment: Activity against Trypanosoma brucei rhodesiense (resazurin, 72 h); assay type: cell-based; settings: at the highest test concentrations (20 μg/mL)
[3] = test system: bloodstream forms of Trypanosoma brucei rhodesiense STIB 900 strain; experiment: as above; assay type: cell-based; settings: for IC50: Trypanosoma brucei
Protocol: Minimum Essential Medium (50 µL) supplemented with 25 mM HEPES, 1 g/L additional glucose, 1% MEM non-essential amino acids (100×), 0.2 mM 2-mercaptoethanol, 1mM Na-pyruvate and 15% heat inactivated horse serum was added to each well of a 96-well microtiter plate. Serial drug dilutions of eleven 3-fold dilution steps covering a range from 100 to 0.002 μg/mL were prepared. Then 4 × 10^4 bloodstream forms of STIB 900 strain (the stock was isolated in 1982 from a human patient in Tanzania and after several mouse passages was cloned and adapted to axenic culture conditions) of T. b. rhodesiense in 50 μL was added to each well and the plate incubated at 37 °C under a 5% CO2 atmosphere for 72 h. 10 µL of a resazurin solution (prepared dissolving 12.5 mg resazurin in 100 mL double distilled water) was then added to each well and incubation continued for a further 2–4 h. Then the plates were read in a Spectramax Gemini XS microplate fluorometer (Molecular Devices Cooperation, Sunnyvale, CA, USA) using an excitation wavelength of 536 nm and an emission wavelength of 588 nm. The IC50 values were calculated by linear regression from the sigmoidal dose inhibition curves using SoftmaxPro software (Molecular Devices Cooperation, Sunnyvale, CA, USA). Melarsoprol was the standard drug.

[4] = Cytotoxicity against L6 cells (resazurin, 72 h); assay type: cell-based, rat
Protocol: Assays were performed in 96-well microtiter plates, each well containing 100 μL of RPMI 1640 medium supplemented with 1% L-glutamine (200 mM) and 10% fetal bovine serum, and 4 × 10^4 L-6 cells. Serial drug dilutions of eleven 3-fold dilution steps covering a range from 100 to 0.002 μg/mL were prepared. After 72 h of incubation the plates were inspected under an inverted microscope to assure growth of the controls and sterile conditions. 10 μL of a resazurin solution (prepared dissolving 12.5 mg resazurin in 100 mL double distilled water) was then added to each well and the plates incubated for another 2 h. The plates were read with a Spectramax Gemini XS microplate fluorometer using an excitation wavelength of 536 nm and an emission wavelength of 588 nm. The IC50 values were calculated by linear regression from the sigmoidal dose inhibition curves using SoftmaxPro software (Molecular Devices Cooperation, Sunnyvale, CA, USA). The reported IC50 values are the means of at least two separate experiments. Podophyllotoxin was used as control drug.

[5] = in vitro, bloodstream forms, mean of at least two replicates, read-out: IC50 T. b. rhodesiense
[6] = rat skeletal myoblasts, mean of at least two replicates, read-out: IC50 Cytotoxicity L6 cells
[7] = rat skeletal myoblasts, mean of at least two replicates, read-out: IC50 Cytotoxicity L6 cells (in parentheses)
[8] = in vitro, read-out: IC50 against T. b. rhodesiense
[9] = in vitro, bloodstream forms, mean of at least two replicates, read-out: IC50 T. b. rhodesiense (in parentheses)

## peroxyplakoric ester B3
[1]; methyl linked at C-2 in place of C-4
  activity against T. b. rhodesiense (in words): almost completely lost

## CC/C=C(C)/C=C/CCCC1(O)C[C@H](C)[C@H](CC(=O)OC)O1 (stereo partly drawn) [Compound 6]
[2]
  antitrypanosomal activity (in words): inactive
[3]; [5]
  IC50: > 20 µg/mL
[4]; rat
  IC50 at 72 h: 82.3 µg/mL and 252 µM

## COc1cc([C@@H]2c3cc4c(cc3[C@H](O)[C@H]3COC(=O)[C@H]23)OCO4)cc(OC)c1OC [Podophyllotoxin, reference compound]
[4]; [6]
  IC50 at 72 h: 0.004 µg/mL
[4]; [7]
  IC50 at 72 h: 9.6 nM

## manadoperoxide K
[1]; in vitro
  IC50 against T. b. rhodesiense: 0.087 µg/mL
[1]; [8]
  IC50: 240 nM

## CC/C=C(C)/C=C/CCC[C@]1(OC)C[C@H](C)[C@H](CC(=O)OC)OO1 [Manadoperoxide B (1), manadoperoxide B]
[1]; in vitro
  IC50 T. b. rhodesiense: 0.003 µg/mL (≈ 8.81 nM)
[1]; in vitro, read-out: IC50 T. b. rhodesiense (in parentheses)
  IC50: 8.8 nM

## manadoperoxide I
[1]; in vitro
  IC50 against T. b. rhodesiense: 0.062 µg/mL
[1]; [8]
  IC50: 170 nM

## COC(=O)C[C@@H]1OO[C@@](CCCC=O)(OC)C[C@@H]1C [Aldehyde 7]
[3]; [5]
  IC50: 1.21 µg/mL
[3]; [9]
  IC50: 4420 nM
[4]; rat
  IC50 at 72 h: 7.55 µg/mL and 27.6 µM

## CC[C@H]1OO[C@@H](CCC[C@]2(OC)C[C@H](C)[C@H](CC(=O)OC)OO2)C=C1C [Compound 8]
[3]; [5]
  IC50: 0.16 µg/mL
[3]; [9]
  IC50: 430 nM
[4]; rat
  IC50 at 72 h: 12.6 µg/mL and 33.8 µM

## CC/C=C(C)\C=C\CCC[C@]1(OC)C[C@H](C)[C@H](CC(=O)OC)OO1 [12-Isomanadoperoxide B (2), 12-isomanadoperoxide B]
[3]; IC50 against L6 cells divided by IC50 against the parasite
  selectivity index (SI): 345
[3]; [5]
  IC50: 0.011 µg/mL
[3]; [9]
  IC50: 32 nM
[3]; comparison of IC50 values against T. b. rhodesiense
  trypanocidal activity relative to manadoperoxide B (1): four-fold reduction
[4]; rat
  IC50 at 72 h: 3.8 µg/mL and 11.2 µM

## Nc1nc(N)nc(Nc2ccc([As]3SCC(CO)S3)cc2)n1 (stereo not drawn) [Melarsoprol, reference compound]
[3]; read-out: IC50 T. b. rhodesiense
  IC50: 0.002 µg/mL
[3]; read-out: IC50 T. b. rhodesiense (in parentheses)
  IC50: 5 nM
[4]; [6]
  IC50 at 72 h: 7.3 µg/mL
[4]; [7]
  IC50 at 72 h: 18200 nM

## CC/C=C(C)/C=C/CCC[C@]1(OC)C[C@H](C)[C@H](CC(=O)O)OO1 [Manadoperoxidic acid B (3), manadoperoxidic acid B]
[3]; [5]
  IC50: 1.87 µg/mL
[3]; [9]
  IC50: 5740 nM
[4]; rat
  IC50 at 72 h: 7.12 µg/mL and 21.8 µM
